This is an account of results in patent US12662479B2 (Foghorn Therapeutics Inc., priority 2020, dated 2026).

The target in one test is T1, HiBit-BRM fusion protein (Homo sapiens, UniProt P51531).
T1 construct: expressed in transfected cells
In words: HiBiT-BRM cell-based degradation assay (Nano-Glo HiBiT Lytic Detection, 24 h). The following applies: HeLa cells expressing HiBiT-BRM; for DC50: read-out: BRM HiBit Degradation IC50; for BRM HiBit Degradation Maximum measured: top dose 30 μM. The essentials: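 HeLa cells stably expressing HiBiT-BRM were treated for 24 h with compounds (10-point 3-fold dilutions, 30 μM final top dose, in duplicate). HiBiT was detected by lytic LgBiT complementation luminescence. % degradation was normalized to DMSO (high control) and 2 μM of a reference BRM/BRG1 degrader (low control).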
In general terms: HiBiT is a short tag that completes a luciferase, so light tracks the accessible tagged protein.

In test [1] the target is T2, HiBit-BRG1 fusion protein (Homo sapiens, UniProt P51532).
T2 construct: expressed in transfected cells
T2 sequence (P51532 whole entry, the tested form may be a part): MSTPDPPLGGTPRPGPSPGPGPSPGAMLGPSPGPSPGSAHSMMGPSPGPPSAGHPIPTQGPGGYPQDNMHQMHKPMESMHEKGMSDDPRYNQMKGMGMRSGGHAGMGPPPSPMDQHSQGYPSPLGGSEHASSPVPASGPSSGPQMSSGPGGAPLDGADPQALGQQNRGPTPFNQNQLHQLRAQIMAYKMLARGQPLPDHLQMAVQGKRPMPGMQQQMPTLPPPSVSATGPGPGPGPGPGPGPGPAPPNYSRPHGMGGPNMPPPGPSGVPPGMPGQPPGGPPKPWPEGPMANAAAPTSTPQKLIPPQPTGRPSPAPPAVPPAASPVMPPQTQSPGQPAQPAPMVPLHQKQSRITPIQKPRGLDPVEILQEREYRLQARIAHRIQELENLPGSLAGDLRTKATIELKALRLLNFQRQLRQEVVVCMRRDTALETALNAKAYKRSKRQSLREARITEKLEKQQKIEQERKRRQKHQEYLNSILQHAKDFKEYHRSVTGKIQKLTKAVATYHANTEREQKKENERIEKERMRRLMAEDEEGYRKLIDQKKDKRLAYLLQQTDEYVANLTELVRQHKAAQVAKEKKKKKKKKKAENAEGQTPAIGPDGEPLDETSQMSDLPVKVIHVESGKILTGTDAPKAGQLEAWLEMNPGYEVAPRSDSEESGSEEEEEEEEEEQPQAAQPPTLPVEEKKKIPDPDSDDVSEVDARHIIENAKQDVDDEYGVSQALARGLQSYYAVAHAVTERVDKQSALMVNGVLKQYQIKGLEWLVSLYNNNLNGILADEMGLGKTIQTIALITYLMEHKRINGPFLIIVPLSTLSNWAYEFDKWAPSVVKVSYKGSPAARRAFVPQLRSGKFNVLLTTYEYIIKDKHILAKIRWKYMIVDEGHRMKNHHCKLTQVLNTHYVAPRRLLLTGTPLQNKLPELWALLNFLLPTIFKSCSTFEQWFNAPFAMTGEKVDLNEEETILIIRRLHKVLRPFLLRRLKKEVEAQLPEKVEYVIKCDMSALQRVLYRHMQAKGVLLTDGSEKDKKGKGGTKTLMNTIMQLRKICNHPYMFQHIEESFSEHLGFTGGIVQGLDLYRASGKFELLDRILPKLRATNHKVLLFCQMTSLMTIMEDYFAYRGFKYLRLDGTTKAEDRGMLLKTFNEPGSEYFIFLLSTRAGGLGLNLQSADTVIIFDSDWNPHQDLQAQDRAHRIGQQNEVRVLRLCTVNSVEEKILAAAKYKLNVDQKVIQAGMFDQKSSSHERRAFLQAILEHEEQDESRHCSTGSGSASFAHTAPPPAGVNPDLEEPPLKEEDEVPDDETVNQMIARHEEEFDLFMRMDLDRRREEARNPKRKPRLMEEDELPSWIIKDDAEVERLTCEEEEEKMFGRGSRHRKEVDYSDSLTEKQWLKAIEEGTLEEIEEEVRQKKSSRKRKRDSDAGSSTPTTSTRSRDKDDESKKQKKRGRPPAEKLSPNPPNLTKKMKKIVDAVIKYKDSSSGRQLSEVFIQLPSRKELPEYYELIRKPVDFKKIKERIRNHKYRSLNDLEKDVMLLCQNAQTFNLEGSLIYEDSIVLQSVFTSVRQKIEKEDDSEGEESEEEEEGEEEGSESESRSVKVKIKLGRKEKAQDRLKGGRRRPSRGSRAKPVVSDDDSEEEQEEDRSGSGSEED
Description: HiBiT-BRG1 cell-based degradation assay (Nano-Glo HiBiT Lytic Detection, 24 h). The following applies: HeLa cells expressing HiBit-BRG1 and LgBit; for DC50: read-out: BRG1 HiBit Degradation IC50; for Dmax: HeLa, top dose 30 μM, read-out: BRG1 HiBit Degradation Maximum measured. The essentials: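 Stable HeLa line expressing HiBiT-BRG1 and LgBiT, seeded at 5000 cells/well; luminescence read after lytic Nano-Glo HiBiT reagent and 10 min shaking at RT. % degradation normalised between DMSO (high control) and 2 μM reference BRM/BRG1 degrader (low control).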

T1 sequence (P51531 whole entry, the tested form may be a part): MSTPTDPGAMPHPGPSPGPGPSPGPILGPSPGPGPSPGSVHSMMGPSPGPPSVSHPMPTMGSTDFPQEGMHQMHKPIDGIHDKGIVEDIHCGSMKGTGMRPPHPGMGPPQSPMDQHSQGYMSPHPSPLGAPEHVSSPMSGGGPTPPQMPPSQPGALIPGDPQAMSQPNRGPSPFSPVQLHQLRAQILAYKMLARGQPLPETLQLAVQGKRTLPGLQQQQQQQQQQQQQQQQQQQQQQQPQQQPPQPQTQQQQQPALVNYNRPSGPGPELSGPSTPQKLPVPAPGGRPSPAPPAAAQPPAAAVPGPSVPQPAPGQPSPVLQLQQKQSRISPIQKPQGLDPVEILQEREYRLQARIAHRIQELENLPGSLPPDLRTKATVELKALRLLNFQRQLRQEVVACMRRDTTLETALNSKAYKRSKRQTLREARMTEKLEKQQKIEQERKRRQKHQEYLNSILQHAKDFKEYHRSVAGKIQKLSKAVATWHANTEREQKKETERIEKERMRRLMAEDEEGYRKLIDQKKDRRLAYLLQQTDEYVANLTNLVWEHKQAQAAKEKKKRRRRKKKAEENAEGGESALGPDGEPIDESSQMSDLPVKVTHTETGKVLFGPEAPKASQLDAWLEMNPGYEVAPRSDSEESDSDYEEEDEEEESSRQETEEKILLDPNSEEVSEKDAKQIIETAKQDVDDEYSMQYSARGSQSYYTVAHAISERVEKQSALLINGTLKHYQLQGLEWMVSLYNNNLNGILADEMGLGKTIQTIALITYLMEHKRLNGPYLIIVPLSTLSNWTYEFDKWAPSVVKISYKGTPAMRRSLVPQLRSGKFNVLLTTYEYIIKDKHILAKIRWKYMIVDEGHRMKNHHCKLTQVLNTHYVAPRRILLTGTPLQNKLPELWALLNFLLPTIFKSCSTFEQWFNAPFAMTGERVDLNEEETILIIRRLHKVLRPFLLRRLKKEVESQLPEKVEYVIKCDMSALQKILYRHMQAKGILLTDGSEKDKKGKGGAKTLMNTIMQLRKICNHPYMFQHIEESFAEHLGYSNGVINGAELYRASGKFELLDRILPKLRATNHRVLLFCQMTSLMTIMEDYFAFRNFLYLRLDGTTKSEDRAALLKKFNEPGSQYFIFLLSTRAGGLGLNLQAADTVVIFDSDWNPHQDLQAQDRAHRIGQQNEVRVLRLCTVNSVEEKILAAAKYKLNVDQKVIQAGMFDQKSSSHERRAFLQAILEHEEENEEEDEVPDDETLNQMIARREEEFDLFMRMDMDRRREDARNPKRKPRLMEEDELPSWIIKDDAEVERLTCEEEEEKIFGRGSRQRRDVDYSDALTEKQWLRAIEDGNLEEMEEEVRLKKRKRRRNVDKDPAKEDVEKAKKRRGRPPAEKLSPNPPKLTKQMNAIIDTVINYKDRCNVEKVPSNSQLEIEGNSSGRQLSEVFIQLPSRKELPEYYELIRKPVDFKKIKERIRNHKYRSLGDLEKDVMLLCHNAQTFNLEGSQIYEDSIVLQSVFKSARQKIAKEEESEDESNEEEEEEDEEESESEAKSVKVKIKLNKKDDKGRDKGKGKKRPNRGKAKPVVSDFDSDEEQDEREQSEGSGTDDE

`CS(=O)(=O)n1ccc(C(=O)N[C@@H](CCCCNC(=O)C2CCN(CCOc3ccc4c(c3)C(=O)N(C3CCC(=O)NC3=O)C4=O)CC2)C(=O)Nc2nc(-c3ccccc3)cs2)c1` (some centres unmarked) [Compound 269]: on HiBit-BRM fusion protein, the DC50 is > 10 µM and the “BRM HiBit Degradation Maximum measured” value is “C (‘C’ = Maximum degradation <50%)”. In addition, in test [1], the DC50 was > 10 µM and the Dmax is < 50%.
As for `CS(=O)(=O)n1ccc(C(=O)N[C@@H](CCOCCCC(=O)NCCOc2cccc(OCCNc3cccc4c3C(=O)N(C3CCC(=O)NC3=O)C4=O)c2)C(=O)Nc2nc(-c3ccccc3)cs2)c1` (stereo partly drawn) [Compound 270, (2S)-4-[3-([2-[3-(2-[[2-(2,6-dioxopiperidin-3-yl)-1,3-dioxoisoindol-4-yl]amino]ethoxy)phenoxy]ethyl]carbamoyl)propoxy]-2-[(1-methanesulfonylpyrrol-3-yl)formamido]-N-(4-phenyl-1,3-thiazol-2-yl)butanamide], at HiBit-BRM fusion protein, the DC50 was > 10 µM and the “BRM HiBit Degradation Maximum measured” value is given as “C (‘C’ = Maximum degradation <50%)”. Also, in test [1], the DC50 is > 10 µM and the Dmax is < 50%.
On to `CS(=O)(=O)n1ccc(C(=O)N[C@@H](CCOCCCC(=O)NCCCC#Cc2ccc3c(c2)C(=O)N(C2CCC(=O)NC2=O)C3=O)C(=O)Nc2nc(-c3ccccc3)cs2)c1` (stereo partly drawn) [Compound 271, (2S)-4-[3-([5-[2-(2,6-dioxopiperidin-3-yl)-1,3-dioxoisoindol-5-yl]pent-4-yn-1-yl]carbamoyl)propoxy]-2-[(1-methanesulfonylpyrrol-3-yl)formamido]-N-(4-phenyl-1,3-thiazol-2-yl)butanamide], for which, at HiBit-BRM fusion protein, the DC50 is > 10 µM and the “BRM HiBit Degradation Maximum measured” value is “C (‘C’ = Maximum degradation <50%)”. Besides, in test [1], the DC50 is > 10 µM and the Dmax is < 50%.
For the compound `CS(=O)(=O)n1ccc(C(=O)N[C@@H](CCOCCCC(=O)NCCCC#Cc2cccc3c2C(=O)N(C2CCC(=O)NC2=O)C3=O)C(=O)Nc2nc(-c3ccccc3)cs2)c1` (stereo partly drawn) [Compound 272, (2S)-4-[3-([5-[2-(2,6-dioxopiperidin-3-yl)-1,3-dioxoisoindol-4-yl]pent-4-yn-1-yl]carbamoyl)propoxy]-2-[(1-methanesulfonylpyrrol-3-yl)formamido]-N-(4-phenyl-1,3-thiazol-2-yl)butanamide], on HiBit-BRM fusion protein, the DC50 was > 10 µM and the “BRM HiBit Degradation Maximum measured” value was “C (‘C’ = Maximum degradation <50%)”. Further, in test [1], the DC50 was > 10 µM and the Dmax was < 50%.
With `CS(=O)(=O)n1ccc(C(=O)N[C@@H](CCOCCCC(=O)NCCOCCOCCOCCNC(=O)COc2ccc3c(c2)C(=O)N(C2CCC(=O)NC2=O)C3=O)C(=O)Nc2nc(-c3ccccc3)cs2)c1` (stereo partly drawn) [Compound 273, (2S)-4-(3-[[2-(2-[2-[2-(2-[[2-(2,6-dioxopiperidin-3-yl)-1,3-dioxoisoindol-5-yl]oxy]acetamido)ethoxy]ethoxy]ethoxy)ethyl]carbamoyl]propoxy)-2-[(1-methanesulfonylpyrrol-3-yl)formamido]-N-(4-phenyl-1,3-thiazol-2-yl)butanamide], on HiBit-BRM fusion protein, the DC50 is > 10 µM and the “BRM HiBit Degradation Maximum measured” value is recorded as “C (‘C’ = Maximum degradation <50%)”. Moreover, in test [1], the DC50 was > 10 µM and the Dmax is < 50%.
With `CS(=O)(=O)n1ccc(C(=O)N[C@@H](CCOCCCC(=O)NCCOCCOCCNC(=O)COc2ccc3c(c2)C(=O)N(C2CCC(=O)NC2=O)C3=O)C(=O)Nc2nc(-c3ccccc3)cs2)c1` (stereo partly drawn) [Compound 274, (2S)-4-[3-[(2-[2-[2-(2-[[2-(2,6-dioxopiperidin-3-yl)-1,3-dioxoisoindol-5-yl]oxy]acetamido)ethoxy]ethoxy]ethyl)carbamoyl]propoxy]-2-[(1-methanesulfonylpyrrol-3-yl)formamido]-N-(4-phenyl-1,3-thiazol-2-yl)butanamide], at HiBit-BRM fusion protein, the DC50 is > 10 µM and the “BRM HiBit Degradation Maximum measured” value is given as “C (‘C’ = Maximum degradation <50%)”. In test [1], the DC50 was > 10 µM and the Dmax is < 50%.
With `CS(=O)(=O)n1ccc(C(=O)N[C@@H](CCOCCCC(=O)NCCCCS(=O)(=O)CCCNc2cccc3c2C(=O)N(C2CCC(=O)NC2=O)C3=O)C(=O)Nc2nc(-c3ccccc3)cs2)c1` (stereo partly drawn) [Compound 275, (2S)-4-(3-[[4-(3-[[2-(2,6-dioxopiperidin-3-yl)-1,3-dioxoisoindol-4-yl]amino]propanesulfonyl)butyl]carbamoyl]propoxy)-2-[(1-methanesulfonylpyrrol-3-yl)formamido]-N-(4-phenyl-1,3-thiazol-2-yl)butanamide], on HiBit-BRM fusion protein, the DC50 is > 10 µM and the “BRM HiBit Degradation Maximum measured” value is listed as “C (‘C’ = Maximum degradation <50%)”. In addition, in test [1], the DC50 was > 10 µM and the Dmax is < 50%.
Regarding `CN(CCNC(=O)CCCOCC[C@H](NC(=O)c1ccn(S(C)(=O)=O)c1)C(=O)Nc1nc(-c2ccccc2)cs1)CCNc1cccc2c1C(=O)N(C1CCC(=O)NC1=O)C2=O` (stereo partly drawn) [Compound 276, (2S)-4-[3-([2-[(2-[[2-(2,6-dioxopiperidin-3-yl)-1,3-dioxoisoindol-4-yl]amino]ethyl)(methyl)amino]ethyl]carbamoyl)propoxy]-2-[(1-methanesulfonylpyrrol-3-yl)formamido]-N-(4-phenyl-1,3-thiazol-2-yl)butanamide; formic acid], on HiBit-BRM fusion protein, the DC50 was > 10 µM and the “BRM HiBit Degradation Maximum measured” value is recorded as “C (‘C’ = Maximum degradation <50%)”. Also, in test [1], the DC50 was > 10 µM and the Dmax was < 50%.
For `CS(=O)(=O)n1ccc(C(=O)N[C@@H](CCOCCCC(=O)NCCC2CCN(c3ccc4c(c3)C(=O)N(C3CCC(=O)NC3=O)C4=O)CC2)C(=O)Nc2nc(-c3ccccc3)cs2)c1` (stereo partly drawn) [Compound 277, (2S)-4-[3-[(2-[1-[2-(2,6-dioxopiperidin-3-yl)-1,3-dioxoisoindol-5-yl]piperidin-4-yl]ethyl)carbamoyl]propoxy]-2-[(1-methanesulfonylpyrrol-3-yl)formamido]-N-(4-phenyl-1,3-thiazol-2-yl)butanamide], at HiBit-BRM fusion protein, the DC50 is > 10 µM and the “BRM HiBit Degradation Maximum measured” value is given as “C (‘C’ = Maximum degradation <50%)”. Besides, in test [1], the DC50 is > 10 µM and the Dmax was < 50%.
`CS(=O)(=O)n1ccc(C(=O)N[C@@H](CCOCCCC(=O)NCCOC2CN(c3ccc4c(c3)C(=O)N(C3CCC(=O)NC3=O)C4=O)C2)C(=O)Nc2nc(-c3ccccc3)cs2)c1` (stereo partly drawn) [Compound 278, (2S)-4-(3-[[2-([1-[2-(2,6-dioxopiperidin-3-yl)-1,3-dioxoisoindol-5-yl]azetidin-3-yl]oxy)ethyl]carbamoyl]propoxy)-2-[(1-methanesulfonylpyrrol-3-yl)formamido]-N-(4-phenyl-1,3-thiazol-2-yl)-butanemide]: at HiBit-BRM fusion protein, the DC50 is > 10 µM and the “BRM HiBit Degradation Maximum measured” value is recorded as “C (‘C’ = Maximum degradation <50%)”. Further, in test [1], the DC50 was > 10 µM and the Dmax is < 50%.
Regarding `CS(=O)(=O)n1ccc(C(=O)NC(CCOCCCC(=O)NC2CCN(CCOc3ccc4c(c3)C(=O)N(C3CCC(=O)NC3=O)C4=O)CC2)C(=O)Nc2nc(-c3ccccc3)cs2)c1` [Compound 279, (2S)-4-(3-[[1-(2-[[2-(2,6-dioxopiperidin-3-yl)-1,3-dioxoisoindol-5-yl]oxylethyl)piperidin-4-yl]carbamoyl]propoxy)-2-[(1-methanesulfonylpyrrol-3-yl)formamido]-N-(4-phenyl-1,3-thiazol-2-yl)butanamide; formic acid], on HiBit-BRM fusion protein, the DC50 was > 10 µM and the “BRM HiBit Degradation Maximum measured” value is “C (‘C’ = Maximum degradation <50%)”. For the same compound, in test [1], the DC50 is > 10 µM and the Dmax is < 50%.
Consider `CS(=O)(=O)n1ccc(C(=O)N[C@@H](CCOCCCC(=O)NCCOc2ccc3c(c2)C(=O)N(C2CCC(=O)NC2=O)C3=O)C(=O)Nc2nc(-c3ccccc3)cs2)c1` (stereo partly drawn) [Compound 280, (2S)-4-[3-[(2-[[2-(2,6-dioxopiperidin-3-yl)-1,3-dioxoisoindol-5-yl]oxy]ethyl)carbamoyl]propoxy]-2-[(1-methanesulfonylpyrrol-3-yl)formamido]-N-(4-phenyl-1,3-thiazol-2-yl)butanamide], for which, at HiBit-BRM fusion protein, the DC50 was > 10 µM and the “BRM HiBit Degradation Maximum measured” value was “C (‘C’ = Maximum degradation <50%)”. In test [1], the DC50 is > 10 µM and the Dmax is < 50%.
In the case of `CS(=O)(=O)n1ccc(C(=O)N[C@@H](CCOCCCC(=O)NCCCCCCCCNc2cccc3c2C(=O)N(C2CCC(=O)NC2=O)C3=O)C(=O)Nc2nc(-c3ccccc3)cs2)c1` (stereo partly drawn) [Compound 281, (2S)-4-[3-[(8-[[2-(2,6-dioxopiperidin-3-yl)-1,3-dioxoisoindol-4-yl]amino]octyl)carbamoyl]propoxy]-2-[(1-methanesulfonylpyrrol-3-yl)formamido]-N-(4-phenyl-1,3-thiazol-2-yl)butanamide], on HiBit-BRM fusion protein, the DC50 was > 10 µM and the “BRM HiBit Degradation Maximum measured” value was “C (‘C’ = Maximum degradation <50%)”. Further, in test [1], the DC50 is > 10 µM and the Dmax was < 50%.
In the case of `CS(=O)(=O)n1ccc(C(=O)N[C@@H](CCOCCCC(=O)NCCCCNc2ccc3c(c2)C(=O)N(C2CCC(=O)NC2=O)C3=O)C(=O)Nc2nc(-c3ccccc3)cs2)c1` (stereo partly drawn) [Compound 282, (2S)-4-[3-[(4-[[2-(2,6-dioxopiperidin-3-yl)-1,3-dioxoisoindol-5-yl]amino]butyl)carbamoyl]propoxy]-2-[(1-methanesulfonylpyrrol-3-yl)formamido]-N-(4-phenyl-1,3-thiazol-2-yl)butanamide], on HiBit-BRM fusion protein, the DC50 was > 10 µM and the “BRM HiBit Degradation Maximum measured” value is reported as “C (‘C’ = Maximum degradation <50%)”. In test [1], the DC50 was > 10 µM and the Dmax was < 50%.
